# Results reported in US8173698B2, “Environmental sensitive fluorogenic compounds and their application for singlet oxygen and protein detection” (priority 2003, dated 2012).
# Columns and labels:
# [1] = target: bovine serum albumin (BSA) (Bos taurus, UniProt P02769); conditions: excitation 488 nm
# Description: A solution of Compound 5 (1 μM) was prepared in phosphate-buffered saline (PBS) (50 mM phosphate buffer, pH 7.4, 150 mM NaCl). A 2 mL portion of this solution was transferred to a 10 mm×10 mm quartz cuvette. The fluorescence emission spectrum of the solution was recorded on a Hitachi F-4500 spectrofluorometer using excitation at 488 nm. 1 μL of a 4.5 mM solution of bovine serum albumin (30% (w/v) BSA (Sigma Chemical Co., St. Louis, Mo., catalog number A-7284)) was then added to the 2 mL of aqueous dye solution. The emission scan measurement was then repeated. Further measurements were made as the amount of added BSA was increased up to 4.5 μM.
# [2] = Dependence of fluorescence emission spectra on solvent; type: physicochemical; conditions: 1 μM; MeOH and aqueous buffer (50 mM Tris pH 7.5) vs DMSO; excitation 488 nm
# Description: Solutions of Compound 5 (1 μM) were prepared in dimethylsulfoxide (DMSO), methanol (MeOH) and aqueous buffer (50 mM Tris pH 7.5). 2 mL portions of these solutions were transferred to 10 mm×10 mm quartz cuvettes and fluorescence emission spectra were recorded on a Hitachi F-4500 spectrofluorometer using identical instrument detection sensitivity settings. Excitation was at 488 nm in all cases. For the DMSO and MeOH solutions, the spectra were re-scanned after addition of a small amount of 0.1 M NaOH to the 2 mL solution sample. Results are plotted in FIG. 3A and FIG. 3B. FIG. 3B represents an approximately 10-fold enlargement on the y-axis of FIG. 3A.
# Chain of bovine serum albumin (BSA) (P02769 25-607): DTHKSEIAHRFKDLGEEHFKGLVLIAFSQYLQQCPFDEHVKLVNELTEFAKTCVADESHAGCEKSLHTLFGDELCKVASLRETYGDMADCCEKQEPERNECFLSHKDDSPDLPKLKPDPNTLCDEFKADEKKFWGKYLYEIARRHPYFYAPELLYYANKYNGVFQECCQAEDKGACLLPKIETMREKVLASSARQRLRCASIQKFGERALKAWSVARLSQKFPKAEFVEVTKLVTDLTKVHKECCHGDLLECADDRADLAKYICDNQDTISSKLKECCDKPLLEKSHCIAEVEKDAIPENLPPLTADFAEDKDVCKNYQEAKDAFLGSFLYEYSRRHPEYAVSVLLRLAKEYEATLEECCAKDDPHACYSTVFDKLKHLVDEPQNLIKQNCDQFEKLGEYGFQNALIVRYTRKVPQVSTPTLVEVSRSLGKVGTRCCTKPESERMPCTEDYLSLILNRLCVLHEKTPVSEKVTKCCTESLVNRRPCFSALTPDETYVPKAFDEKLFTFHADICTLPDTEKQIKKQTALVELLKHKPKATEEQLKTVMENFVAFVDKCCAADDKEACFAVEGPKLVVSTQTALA
compound,measurement,setting,value
CC(=O)O.Cc1c2ccccc2c(-c2cc3c(-c4ccccc4C(=O)O)c4cc(Cl)c(O)cc4oc-3cc2=O)c2ccccc12 [Compound 5],change of fluorescence upon binding to BSA,"[1]; 1 μM dye in PBS pH 7.4, BSA 0-5 μM",fluorescence enhancement
same,fluorescence emission peak,[1]; in PBS with BSA,540 nm
same,fluorescence of the dye in MeOH and aqueous buffer relative to that in DMSO,[2],extremely weak fluorescence
